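96-well plates; 48 h exposure; 5 concentrations. Endpoints by linear interpolation between flanking doses. Not reached: highest tested concentration assigned. GI50: concentration for 50% inhibition of growth.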 Active and inactive are the calls of the source. Rule as the data show it: active = GI50 up to about 1.1 µM and inactive = higher.
What was measured:
Experiment in all cases: growth of human tumour cells (NCI), 48 h
786-0 = system: 786-0
A498 = system: A498
A549 = system: A549
ACHN = system: ACHN
BT-549 = system: BT-549
CCRF-CEM = system: CCRF-CEM
COLO 205 = system: COLO 205
DU-145 = system: DU-145
EKVX = system: EKVX
HCC 2998 = system: HCC 2998
HCT-116 = system: HCT-116
HCT-15 = system: HCT-15
HL-60 = system: HL-60
HOP-62 = system: HOP-62
HOP-92 = system: HOP-92
HT-29 = system: HT-29
IGROV-1 = system: IGROV-1
K562 = system: K562
M14 = system: M14
MCF7 = system: MCF7
MDA-MB-231 = system: MDA-MB-231
MDA-MB-435 = system: MDA-MB-435
MDA-N = system: MDA-N
MOLT-4 = system: MOLT-4
Malme-3M = system: Malme-3M
NCI-H226 = system: NCI-H226
NCI-H23 = system: NCI-H23
NCI-H460 = system: NCI-H460
NCI/ADR-RES = system: NCI/ADR-RES
OVCAR-3 = system: OVCAR-3
OVCAR-4 = system: OVCAR-4
OVCAR-5 = system: OVCAR-5
OVCAR-8 = system: OVCAR-8
PC-3 = system: PC-3
RPMI-8226 = system: RPMI-8226
SF-268 = system: SF-268
SF-295 = system: SF-295
SK-MEL-28 = system: SK-MEL-28
SK-MEL-5 = system: SK-MEL-5
SK-OV-3 = system: SK-OV-3
SN12C = system: SN12C
SNB-19 = system: SNB-19
SNB-75 = system: SNB-75
SR = system: SR
SW-620 = system: SW-620
T47D = system: T47D
TK-10 = system: TK-10
U-251 = system: U-251
UACC-257 = system: UACC-257
UACC-62 = system: UACC-62
UO-31 = system: UO-31
CAKI-1 = system: CAKI-1
Hs-578T = system: Hs-578T
KM12 = system: KM12
LOX IMVI = system: LOX IMVI
NCI-H522 = system: NCI-H522
RXF 393 = system: RXF 393
SF-539 = system: SF-539
SK-MEL-2 = system: SK-MEL-2

In the case of `CCCCC(O)(c1ccccc1)C(O)(c1ccccc1)c1c(F)c(F)c(F)c(F)c1F` (stereo not drawn), the GI50 (786-0) is reported as 20.1 µM (inactive), the GI50 (A498) is reported as 25.5 µM (inactive) and the GI50 (A549) is reported as 28.4 µM (inactive). For the same compound, the GI50 (ACHN) was 19.6 µM (inactive), the GI50 (BT-549) was 33.3 µM (inactive) and the GI50 (CCRF-CEM) was 25.4 µM (inactive). The GI50 (COLO 205) was > 10 µM (inactive), the GI50 (DU-145) was 48.1 µM (inactive) and the GI50 (EKVX) was 17.9 µM (inactive). The GI50 (HCC 2998) was 15.7 µM (inactive), the GI50 (HCT-116) was 18.1 µM (inactive) and the GI50 (HCT-15) was 13.5 µM. For the same compound, the GI50 (HL-60) was 21.3 µM (inactive), the GI50 (HOP-62) was 17.5 µM (inactive) and the GI50 (HOP-92) was 17.4 µM (inactive). For the same compound, the GI50 (HT-29) was 14.1 µM (inactive), the GI50 (IGROV-1) was 33.3 µM (inactive) and the GI50 (K562) was 27.4 µM (inactive). For the same compound, the GI50 (M14) was 30.3 µM (inactive), the GI50 (MCF7) was 20.3 µM (inactive) and the GI50 (MDA-MB-231) was 16 µM (inactive). For the same compound, the GI50 (MDA-MB-435) was 31.8 µM (inactive), the GI50 (MDA-N) was 17.9 µM (inactive) and the GI50 (MOLT-4) was 16.8 µM (inactive). For the same compound, the GI50 (Malme-3M) was 16.7 µM (inactive), the GI50 (NCI-H226) was 26 µM (inactive) and the GI50 (NCI-H23) was 29 µM (inactive). The GI50 (NCI-H460) was 23.7 µM (inactive), the GI50 (NCI/ADR-RES) was 19.5 µM (inactive) and the GI50 (OVCAR-3) was 17.4 µM (inactive). The GI50 (OVCAR-4) was 44.4 µM (inactive), the GI50 (OVCAR-5) was 18.3 µM (inactive) and the GI50 (OVCAR-8) was 22.1 µM (inactive). For the same compound, the GI50 (PC-3) was 19.1 µM (inactive), the GI50 (RPMI-8226) was 18.2 µM (inactive) and the GI50 (SF-268) was 20 µM (inactive). The GI50 (SF-295) was > 10 µM (inactive), the GI50 (SK-MEL-28) was 27 µM (inactive) and the GI50 (SK-MEL-5) was 18.4 µM (inactive). The GI50 (SK-OV-3) was 21.5 µM (inactive), the GI50 (SN12C) was 17.1 µM (inactive) and the GI50 (SNB-19) was 41.8 µM (inactive). For the same compound, the GI50 (SNB-75) was 37.2 µM (inactive), the GI50 (SR) was 25.3 µM (inactive) and the GI50 (SW-620) was 25.2 µM (inactive). For the same compound, the GI50 (T47D) was 35.4 µM (inactive), the GI50 (TK-10) was 26.4 µM (inactive) and the GI50 (U-251) was 17.3 µM (inactive). The GI50 (UACC-257) was 18.2 µM (inactive), the GI50 (UACC-62) was 17.4 µM (inactive) and the GI50 (UO-31) was 30.3 µM (inactive).
`Cc1cccc(/C=N/NC(=S)Nc2ccccc2)n1` was tested, and the GI50 (786-0) was 2.27 µM (inactive), the GI50 (A498) was 15.3 µM (inactive) and the GI50 (A549) was 5.61 µM (inactive). For the same compound, the GI50 (ACHN) was 2.6 µM (inactive), the GI50 (BT-549) was 7.53 µM (inactive) and the GI50 (CAKI-1) was 5.19 µM (inactive). The GI50 (COLO 205) was 2.75 µM (inactive), the GI50 (DU-145) was 4.18 µM (inactive) and the GI50 (EKVX) was 5.97 µM (inactive). For the same compound, the GI50 (HCC 2998) was 5.64 µM (inactive), the GI50 (HCT-116) was 3.47 µM (inactive) and the GI50 (HCT-15) was 1.98 µM. The GI50 (HOP-62) was 2.93 µM (inactive), the GI50 (HOP-92) was 5.15 µM (inactive) and the GI50 (HT-29) was 3.17 µM (inactive). The GI50 (Hs-578T) was 20.1 µM (inactive), the GI50 (IGROV-1) was 2.84 µM (inactive) and the GI50 (K562) was 4.1 µM (inactive). For the same compound, the GI50 (KM12) was 4.72 µM (inactive), the GI50 (LOX IMVI) was 2.67 µM (inactive) and the GI50 (M14) was 2.49 µM (inactive). The GI50 (MCF7) was 2.89 µM (inactive), the GI50 (MDA-MB-435) was 7.6 µM (inactive) and the GI50 (MDA-N) was 4 µM (inactive). For the same compound, the GI50 (MOLT-4) was 3.27 µM (inactive), the GI50 (Malme-3M) was 5.04 µM (inactive) and the GI50 (NCI-H226) was 6.37 µM (inactive). For the same compound, the GI50 (NCI-H23) was 6.18 µM (inactive), the GI50 (NCI-H460) was 1.57 µM (inactive) and the GI50 (NCI-H522) was 1.48 µM (inactive). The GI50 (NCI/ADR-RES) was 2.88 µM (inactive), the GI50 (OVCAR-3) was 1.97 µM (inactive) and the GI50 (OVCAR-4) was 6.31 µM (inactive). For the same compound, the GI50 (OVCAR-5) was 5.85 µM (inactive), the GI50 (OVCAR-8) was 2.43 µM (inactive) and the GI50 (PC-3) was 6 µM (inactive). The GI50 (RPMI-8226) was 3.48 µM (inactive), the GI50 (RXF 393) was 5.48 µM (inactive) and the GI50 (SF-268) was 3.31 µM (inactive). For the same compound, the GI50 (SF-295) was 6.3 µM (inactive), the GI50 (SF-539) was 2.89 µM (inactive) and the GI50 (SK-MEL-28) was 12.2 µM (inactive). For the same compound, the GI50 (SK-MEL-2) was 3.2 µM (inactive), the GI50 (SK-MEL-5) was 3.08 µM (inactive) and the GI50 (SK-OV-3) was 9.53 µM (inactive). For the same compound, the GI50 (SN12C) was 2.8 µM (inactive), the GI50 (SNB-19) was 11.9 µM (inactive) and the GI50 (SNB-75) was 3.67 µM (inactive). The GI50 (SR) was 16.6 µM (inactive), the GI50 (SW-620) was 5.25 µM (inactive) and the GI50 (T47D) was 2.84 µM (inactive). For the same compound, the GI50 (TK-10) was 2.43 µM (inactive), the GI50 (U-251) was 4.32 µM (inactive) and the GI50 (UACC-257) was 1.82 µM (inactive). For the same compound, the GI50 (UACC-62) was 3.68 µM (inactive) and the GI50 (UO-31) was 3.43 µM (inactive).
With `C=CCOC1OC(CS(=O)(=O)O)C(OC(C)=O)C(OC(C)=O)C1OC(C)=O` (stereo not drawn) the GI50 (A498) was > 100 µM (inactive), the GI50 (BT-549) was > 100 µM (inactive) and the GI50 (CAKI-1) was > 100 µM (inactive). The GI50 (CCRF-CEM) was > 100 µM (inactive), the GI50 (COLO 205) was > 100 µM (inactive) and the GI50 (DU-145) was > 100 µM (inactive). For the same compound, the GI50 (HCC 2998) was > 100 µM (inactive), the GI50 (HCT-116) was > 100 µM (inactive) and the GI50 (HCT-15) was over 100 µM. The GI50 (HL-60) was > 100 µM (inactive), the GI50 (HOP-62) was > 100 µM (inactive) and the GI50 (HOP-92) was > 100 µM (inactive). For the same compound, the GI50 (HT-29) was > 100 µM (inactive), the GI50 (Hs-578T) was > 100 µM (inactive) and the GI50 (IGROV-1) was > 100 µM (inactive). For the same compound, the GI50 (K562) was 38.1 µM (inactive), the GI50 (KM12) was > 100 µM (inactive) and the GI50 (LOX IMVI) was > 100 µM (inactive). The GI50 (M14) was > 100 µM (inactive), the GI50 (MCF7) was > 100 µM (inactive) and the GI50 (MDA-MB-435) was > 100 µM (inactive). The GI50 (MDA-N) was > 100 µM (inactive), the GI50 (MOLT-4) was > 100 µM (inactive) and the GI50 (Malme-3M) was > 100 µM (inactive). The GI50 (NCI-H226) was > 100 µM (inactive), the GI50 (NCI-H23) was > 100 µM (inactive) and the GI50 (NCI-H460) was > 100 µM (inactive). For the same compound, the GI50 (NCI/ADR-RES) was > 100 µM (inactive), the GI50 (OVCAR-3) was > 100 µM (inactive) and the GI50 (OVCAR-4) was > 100 µM (inactive). For the same compound, the GI50 (OVCAR-5) was > 100 µM (inactive), the GI50 (OVCAR-8) was > 100 µM (inactive) and the GI50 (PC-3) was > 100 µM (inactive). For the same compound, the GI50 (RPMI-8226) was > 100 µM (inactive), the GI50 (RXF 393) was > 100 µM (inactive) and the GI50 (SF-295) was > 100 µM (inactive). The GI50 (SK-MEL-28) was > 100 µM (inactive), the GI50 (SK-MEL-2) was > 100 µM (inactive) and the GI50 (SK-MEL-5) was > 100 µM (inactive). The GI50 (SK-OV-3) was > 100 µM (inactive), the GI50 (SN12C) was > 100 µM (inactive) and the GI50 (SNB-19) was > 100 µM (inactive). The GI50 (SNB-75) was > 100 µM (inactive), the GI50 (SR) was > 100 µM (inactive) and the GI50 (SW-620) was > 100 µM (inactive). For the same compound, the GI50 (T47D) was > 100 µM (inactive), the GI50 (TK-10) was > 100 µM (inactive) and the GI50 (U-251) was > 100 µM (inactive). For the same compound, the GI50 (UACC-257) was > 100 µM (inactive), the GI50 (UACC-62) was > 100 µM (inactive) and the GI50 (UO-31) was > 100 µM (inactive).

— ChEMBL document CHEMBL1201862, “PubChem BioAssay data set” (2004)
